Reference: the NIST ThermoML archive (doi:10.1021/je5003797)
“And” between values parts separate entries of the source, which are not always exact repeats. Identical values can stand only once. Numbers after ± are expanded uncertainties.

Experiment: mn = molality of the nth substance listed, in mol/kg
Conditions: 298.15 K, 101 kPa, Liquid

NC=O [formamide] + O
Conditions	mass density
m1 = 0.4985	1000.74 ± 0.19 kg/m3
m1 = 0.5096	1000.84 ± 0.19 kg/m3
m1 = 0.5191	1000.9 ± 0.18 kg/m3
m1 = 0.9969	1004.03 ± 0.19 kg/m3
m1 = 1.081	1004.59 ± 0.19 kg/m3
m1 = 1.085	1004.61 ± 0.19 kg/m3
m1 = 1.499	1007.18 ± 0.2 kg/m3 and 1007.2 ± 0.2 kg/m3
m1 = 1.5	1007.19 ± 0.2 kg/m3
m1 = 1.999	1010.19 ± 0.2 kg/m3 and 1010.16 ± 0.2 kg/m3
m1 = 2.007	1010.21 ± 0.2 kg/m3
m1 = 2.48	1012.92 ± 0.2 kg/m3
m1 = 2.488	1012.96 ± 0.21 kg/m3
m1 = 2.502	1013.04 ± 0.21 kg/m3
m1 = 2.994	1015.72 ± 0.21 kg/m3
m1 = 3	1015.76 ± 0.21 kg/m3
m1 = 3.002	1015.76 ± 0.21 kg/m3
m1 = 3.476	1018.24 ± 0.21 kg/m3
m1 = 3.502	1018.39 ± 0.22 kg/m3
m1 = 3.535	1018.55 ± 0.21 kg/m3
m1 = 3.999	1020.84 ± 0.22 kg/m3
m1 = 4.044	1021.08 ± 0.22 kg/m3
m1 = 4.137	1021.53 ± 0.22 kg/m3
m1 = 4.49	1023.21 ± 0.22 kg/m3
m1 = 4.502	1023.26 ± 0.22 kg/m3
m1 = 4.505	1023.29 ± 0.22 kg/m3
m1 = 5.002	1025.56 ± 0.23 kg/m3
m1 = 5.012	1025.61 ± 0.23 kg/m3
m1 = 5.067	1025.86 ± 0.23 kg/m3
m1 = 5.49	1027.73 ± 0.23 kg/m3
m1 = 5.547	1027.97 ± 0.23 kg/m3
m1 = 5.575	1028.1 ± 0.23 kg/m3
m1 = 5.973	1029.8 ± 0.23 kg/m3
m1 = 6.008	1029.91 ± 0.23 kg/m3
m1 = 6.01	1029.95 ± 0.24 kg/m3
m1 = 6.497	1031.91 ± 0.24 kg/m3
m1 = 6.503	1031.93 ± 0.24 kg/m3
m1 = 6.51	1031.98 ± 0.24 kg/m3
m1 = 6.99	1033.87 ± 0.24 kg/m3
m1 = 7.004	1033.94 ± 0.24 kg/m3
m1 = 7.056	1034.12 ± 0.24 kg/m3
m1 = 7.468	1035.69 ± 0.24 kg/m3
m1 = 7.481	1035.75 ± 0.24 kg/m3
m1 = 7.493	1035.75 ± 0.24 kg/m3
m1 = 7.99	1037.61 ± 0.25 kg/m3
m1 = 8.002	1037.64 ± 0.25 kg/m3
m1 = 8.037	1037.77 ± 0.25 kg/m3
m1 = 8.468	1039.27 ± 0.25 kg/m3
m1 = 8.506	1039.42 ± 0.25 kg/m3
m1 = 8.522	1039.45 ± 0.25 kg/m3
m1 = 8.947	1040.93 ± 0.25 kg/m3
m1 = 8.99	1041.07 ± 0.25 kg/m3
m1 = 9.032	1041.2 ± 0.25 kg/m3
